Test results as given in patent publication US20220030868A1, “FUNGICIDAL HALOMETHYL KETONES AND HYDRATES” (FMC CORPORATION, priority 2018, published 2022).

Key:
[1] = test system: Puccinia recondita f. sp. tritici; experiment: Test B: test suspension sprayed on wheat seedlings one day before inoculation with Puccinia recondita f. sp. tritici spores (wheat leaf rust), disease rating; type: in vivo; settings: 100 = 100% disease control, 0 = no control
Outline: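 Wheat seedlings were sprayed to run-off with compound suspended in 50/50 acetone/water containing 250 ppm PEG400, then inoculated with P. recondita f. sp. tritici spores the next day. Plants were held 24 h in saturated air at 20 °C, then 6 days in a growth chamber at 20 °C. Disease control was rated 0–100% relative to controls, with some entries run at 50 or 10 ppm.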

Phakopsora pachyrhizi = experiment: Test A: test suspension sprayed on soybean seedlings one day before inoculation with Phakopsora pachyrhizi spores (Asian soybean rust), visual disease rating; type: in vivo; settings: 100 = 100% disease control, 0 = no control
Outline: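 Soybean seedlings were sprayed to run-off with test suspension (acetone 3% of volume, acetone/water 50/50, 250 ppm PEG400) and inoculated with rust spores one day later. Incubation: 24 h saturated atmosphere at 22° C, then 8 days growth chamber at 22° C; scores 0–100 relative to untreated controls.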

SMILES | Test B rating (disease control) ([1]; 10 ppm test suspension) | Test A rating (disease control) (Phakopsora pachyrhizi; 10 ppm test suspension) | other results
CCO/C(=C\Oc1ccc(Cn2cncc2C(=O)OC)cc1)C(F)(F)F [compound 85] | 0% | 89% | 
CCO/C(=C\Oc1ccc(C(=O)NC2CC2)cc1)C(F)(F)F [compound 100] | 0% | 0% | 
O=C(NCC(F)(F)F)c1csc(Cc2ccc(OCC3(C(F)(F)F)OCCO3)cc2)n1 [Compound 70] |  |  | Test B rating (disease control) ([1]; 250 ppm test suspension): 100%; Test A rating (disease control) (Phakopsora pachyrhizi; 250 ppm test suspension): 100%
FC(F)(F)C1(COc2ccc(-c3ccccc3)cc2)OCCO1 [compound 190] | 0% | 0% | 
CCOC(=O)c1cnn(Cc2ccc(CO/C=C(\OCC)C(F)(F)F)cc2)c1 [compound 167] | 0% | 38% | 
C#CCO/C(=C\Oc1ccc(Cn2cc(C(=O)OCC)cn2)cc1)C(F)(F)F [compound 56] | 0% | 38% | 
O=C(NCC(F)(F)F)c1csc(Cc2ccc(OCC(O)(O)C(F)(F)F)cc2)n1 [Compound 68] | 95% | 100% | 
CCOC(=O)c1cnn(Cc2ccc(OCC(O)(NO)C(F)(F)F)cc2)c1 (stereo not shown) [Compound 10] | 86% | 100% | 
C=C(C)COC(=O)c1cnn(Cc2ccc(OCC3(C(F)(F)F)OCCO3)cc2)c1 [compound 228] | 0% | 100% | 
CCO/C(=C\Oc1ccc(Cn2cc(C(=O)O)cn2)cc1)C(F)(F)F [compound 116] | 0% | 100% | 
CCO/C(=C\Oc1ccc(CNC(=O)C(C)C)cc1)C(F)(F)F [compound 210] | 0% | 0% | 
CCO/C(=C\Oc1ccc(Cc2nc(C(=O)NCC(F)(F)F)cs2)cc1)C(F)(F)F [compound 129] | 0% | 100% | 
C=CCOC(=O)c1cnn(Cc2ccc(OCC3(C(F)(F)F)OCCO3)cc2)c1 [compound 188] | 0% | 100% | 
N#Cc1cccc(OCC2(C(F)(F)F)OCCO2)c1 [compound 147] |  |  | pest or weed control at 50 ppm ([1]; 50 ppm test suspension): 0%; pest or weed control at 50 ppm (Phakopsora pachyrhizi; Phakopsora pachyrhizi, 50 ppm test suspension): 77%
CCOC(=O)c1ccn(Cc2ccc(O/C=C(\OCC)C(F)(F)F)cc2)n1 [Compound 231, ethyl 1-[[4-[[(1Z)-2-ethoxy-3,3,3-trifluoro-1-propen-1-yl]oxy]phenyl]methyl]-1H-pyrazole-3-carboxylate] |  |  | pest or weed control at 10 ppm ([1]; 10 ppm test suspension): 0%; pest or weed control at 10 ppm (Phakopsora pachyrhizi; Phakopsora pachyrhizi, 10 ppm test suspension): 100%
CC#CCOC(=O)c1cnn(Cc2cccc(O/C=C(\OCC)C(F)(F)F)c2)c1 [compound 300] | 0% | 100% | 
CCO/C(=C\Oc1ccc(Cc2ncc(C(=O)NCC3CC3)o2)cc1)C(F)(F)F [compound 258] | 0% | 96% | 
CCO/C(=C\Oc1ccc(Cc2ncc(C(=O)NCC(F)F)o2)cc1)C(F)(F)F [compound 255] | 0% | 89% | 
O=S(=O)(NCc1ccc(OCC2(C(F)(F)F)OCCO2)cc1)C(F)(F)F [compound 207] | 0% | 0% | 
CCOC(=O)c1cnn(Cc2ccc(OC(C)C(O)(O)C(F)(F)F)cc2)c1 (stereo not shown) [Compound 5] | 0% | 0% | 
CCOCc1cnn(Cc2ccc(OCC3(C(F)(F)F)OCCO3)cc2)c1 [compound 240] | 0% | 99% | 
CCOC(=O)c1cnn(C(C)c2ccc(OCC3(C(F)(F)F)OCCO3)cc2)c1 (stereo not shown) [compound 26] | 0% | 99% | 
CS(=O)(=O)c1ccc(OCC(O)(O)C(F)(F)F)cc1 [Compound 31] | 93% | 44% | 
